Experimental data taken from ChEMBL document CHEMBL5154705, “Discovery and mechanistic study of thiazole-4-acylsulfonamide derivatives as potent and orally active ChemR23 inhibitors with a long-acting effect in cynomolgus monkeys” (Bioorg Med Chem, 2022).
Blank lines part the entries; values can stand above or below the compound they belong to.

What was measured:
[1] = Cmax in cynomolgus monkey at 0.3 mg/kg, po; format: ADME, organism-based, Macaca fascicularis; parameters: dose 0.3 mg/kg, route po; details: in vivo
[2] = Drug concentration in cynomolgus monkey plasma at 0.3 mg/kg, po after 8 hrs; format: ADME, organism-based, Macaca fascicularis
[3] = Tmax in cynomolgus monkey at 0.3 mg/kg, po; format: ADME, organism-based, Macaca fascicularis; details: in vivo
[4] = Half life in cynomolgus monkey at 0.3 mg/kg, po; format: ADME, organism-based, Macaca fascicularis; details: in vivo
[5] = AUC(0 to infinity) in cynomolgus monkey at 0.3 mg/kg, po; format: ADME, organism-based, Macaca fascicularis; parameters: time infinity, dose 0.3 mg/kg, route po; details: in vivo
[6] = MRT in cynomolgus monkey at 0.3 mg/kg, po; format: ADME, organism-based, Macaca fascicularis; details: in vivo
[7] = target: T1, Chemerin-like receptor 1 (Homo sapiens) (UniProt Q99788); details: CAL1
T1 sequence (whole entry): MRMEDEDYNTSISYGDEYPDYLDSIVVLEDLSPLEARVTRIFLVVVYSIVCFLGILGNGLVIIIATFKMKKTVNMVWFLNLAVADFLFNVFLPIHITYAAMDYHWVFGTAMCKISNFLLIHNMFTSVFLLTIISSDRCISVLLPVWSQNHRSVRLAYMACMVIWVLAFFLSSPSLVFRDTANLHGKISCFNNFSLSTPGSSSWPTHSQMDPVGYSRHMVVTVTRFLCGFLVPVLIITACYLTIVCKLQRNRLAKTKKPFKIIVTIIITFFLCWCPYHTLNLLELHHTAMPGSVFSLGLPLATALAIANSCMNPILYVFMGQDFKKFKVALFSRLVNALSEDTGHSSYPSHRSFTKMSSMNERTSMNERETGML

[8] = target: T1, Chemerin-like receptor 1 (Homo sapiens); assay: Binding affinity to ChemR23 (unknown origin) expressed in HEK293T cells at 40 to 1000 nM by flow cytometric analysis; format: cell-based; details: dose 40-1000 nM, DDE = dose-dependent effect
[9] = Drug concentration in cynomolgus monkey plasma at 1 mg/kg, po after 8 hrs; format: ADME, organism-based, Macaca fascicularis
[10] = Cmax in cynomolgus monkey at 0.3 to 1 mg/kg, po; format: ADME, organism-based, Macaca fascicularis; parameters: route po; details: in vivo, dose 0.3-1 mg/kg
[11] = Tmax in cynomolgus monkey at 0.3 to 1 mg/kg, po; format: ADME, organism-based, Macaca fascicularis; details: in vivo, dose 0.3-1 mg/kg
[12] = Half life in cynomolgus monkey at 0.3 to 1 mg/kg, po; format: ADME, organism-based, Macaca fascicularis; details: in vivo, dose 0.3-1 mg/kg
[13] = AUC(0 to infinity) in cynomolgus monkey at 0.3 to 1 mg/kg, po; format: ADME, organism-based, Macaca fascicularis; parameters: route po; details: in vivo, dose 0.3-1 mg/kg
[14] = MRT in cynomolgus monkey at 0.3 to 1 mg/kg, po; format: ADME, organism-based, Macaca fascicularis; details: in vivo, dose 0.3-1 mg/kg
[15] = target: T2, Chemerin-like receptor 1 (Homo sapiens, UniProt Q99788); assay: Inhibition of human ChemR23 expressed in CAL-1 cells assessed as reduction in chemerin-induced calcium signaling; format: functional, cell-based, CAL1
T2 sequence (Q99788 whole entry): T1 sequence (whole entry)

[16] = target: T2, Chemerin-like receptor 1; assay: Inhibition of human ChemR23 expressed in CAL-1 cells assessed as receptor internalization; format: functional, cell-based, CAL1
[17] = Cmax in cynomolgus monkey at 1 mg/kg, po; format: ADME, organism-based, Macaca fascicularis; parameters: dose 1 mg/kg, route po; details: in vivo
[18] = AUC(0 to infinity) in cynomolgus monkey at 1 mg/kg, po; format: ADME, organism-based, Macaca fascicularis; parameters: time infinity, dose 1 mg/kg, route po; details: in vivo
[19] = Tmax in cynomolgus monkey at 1 mg/kg, po; format: ADME, organism-based, Macaca fascicularis; details: in vivo
[20] = Half life in cynomolgus monkey at 1 mg/kg, po; format: ADME, organism-based, Macaca fascicularis; details: in vivo
[21] = MRT in cynomolgus monkey at 1 mg/kg, po; format: ADME, organism-based, Macaca fascicularis; details: in vivo

Structure (SMILES): COc1cccc(-c2sc(N(CC3CC3)[C@H](C)c3ccc(-c4cc(C)ccc4-c4nc(=O)o[nH]4)cc3)nc2C(=O)NS(=O)(=O)C2CC2)c1
IC80 [7]: 42 nM

Structure (SMILES): C[C@H](c1ccc(-c2cc(Cl)ccc2C(=O)NCCOCCOCCOCCOCCOCCOCCn2nnc3c2-c2ccccc2N(C(=O)CCNC(=O)CCOCCOCCOCCOCCNC(=O)c2ccc(C(=O)[O-])c(-c4c5ccc(=[N+](C)C)cc-5oc5cc(N(C)C)ccc45)c2)Cc2ccccc2-3)cc1)N(CC1CC1)c1nc(C(=O)NS(=O)(=O)C2CC2)c(C2CC2)s1
Activity [8]: Dde

Structure (SMILES): CCc1sc(N(CC2CC2)[C@H](C)c2ccc(-c3cc(C)ccc3-c3nc(=O)o[nH]3)cc2)nc1C(=O)NS(=O)(=O)C1CC1
concentration at 8 h [9]: 85.7 ng/mL
Cmax [10]: 5970 ng/mL
Tmax [11]: 1.7 h
half-life [12]: 3 h
AUC(0-inf) [13]: 10300 ng·h/mL
MRT [14]: 2.9 h
IC80 [7]: 63 nM

Structure (SMILES): C[C@H](c1ccc(-c2cc(Cl)ccc2C(=O)NCCOCCOCCOCCOCCOCCOCCOCCOCCOCCOCCOCCOCCOCCOCCOCCOCCOCCOCCOCOCCOCCOCCOCCN=[N+]=[N-])cc1)N(CC1CC1)c1nc(C(=O)NS(=O)(=O)C2CC2)c(C2CC2)s1
IC50 [15]: 100 nM
EC50 [16]: 380 nM

Structure (SMILES): COCCc1sc(N(CC2CC2)[C@H](C)c2ccc(-c3cc(C)ccc3-c3nc(=O)o[nH]3)cc2)nc1C(=O)NS(=O)(=O)C1CC1
concentration at 8 h [9]: 274 ng/mL
Cmax [10]: 3530 ng/mL
Tmax [11]: 2.7 h
half-life [12]: 2.6 h
AUC(0-inf) [13]: 12800 ng·h/mL
MRT [14]: 4.2 h
IC80 [7]: 33 nM

Structure (SMILES): Cc1sc(N(CC2CC2)[C@H](C)c2ccc(-c3cc(Cl)ccc3-c3nc(=O)o[nH]3)cc2)nc1C(=O)O
concentration at 8 h [9]: 7.9 ng/mL
Cmax [17]: 646 ng/mL
AUC(0-inf) [18]: 2210 ng·h/mL

Structure (SMILES): Cc1ccc(-c2nc(=O)o[nH]2)c(-c2ccc([C@@H](C)N(CC3CC3)c3nc(C(=O)NS(=O)(=O)C4CC4)c(CC(C)C)s3)cc2)c1
concentration at 8 h [9]: 772 ng/mL
Cmax [10]: 4250 ng/mL
Tmax [11]: 2.7 h
half-life [12]: 2.3 h
AUC(0-inf) [13]: 21900 ng·h/mL
MRT [14]: 4.9 h
IC80 [7]: 42 nM

Structure (SMILES): Cc1sc(N(CC2CC2)[C@H](C)c2ccc(-c3cc(Cl)ccc3-c3nc(=O)o[nH]3)cc2)nc1C(=O)NC1CC1
IC80 [7]: > 330 nM

Structure (SMILES): C[C@H](c1ccc(-c2cc(Cl)ccc2C(=O)NCCOCCOCCOCCOCCOCCOCCn2nnc3c2-c2ccccc2N(C(=O)CCNC(=O)CCOCCOCCOCCOCCNC(=O)CCCC[C@@H]2SC[C@@H]4NC(=O)N[C@@H]42)Cc2ccccc2-3)cc1)N(CC1CC1)c1nc(C(=O)NS(=O)(=O)C2CC2)c(C2CC2)s1
IC50 [15]: 14 nM

Results, then the compound that gave them:

Cmax [1]: 730 ng/mL
concentration at 8 h [2]: 68.9 ng/mL
Tmax [3]: 1.3 h
half-life [4]: 1.8 h
AUC(0-inf) [5]: 2950 ng·h/mL
MRT [6]: 3.4 h
IC80 [7]: 9.8 nM
Structure (SMILES): C[C@H](c1ccc(-c2cc(Cl)ccc2C(N)=O)cc1)N(CC1CC1)c1nc(C(=O)NS(=O)(=O)C2CC2)c(C2CC2)s1

concentration at 8 h [9]: 2600 ng/mL
Cmax [10]: 7910 ng/mL
Tmax [11]: 2.7 h
half-life [12]: 2.8 h
AUC(0-inf) [13]: 55800 ng·h/mL
MRT [14]: 5.7 h
IC80 [7]: 130 nM
Structure (SMILES): Cc1ccc(-c2nc(=O)o[nH]2)c(-c2ccc([C@@H](C)N(CC3CC3)c3nc(C(=O)NS(=O)(=O)C4CC4)c(C4CCC4)s3)cc2)c1

Cmax [1]: 484 ng/mL
concentration at 8 h [2]: 116 ng/mL
Tmax [3]: 2.7 h
half-life [4]: 3.3 h
AUC(0-inf) [5]: 3290 ng·h/mL
MRT [6]: 5.3 h
Structure (SMILES): CONC(=O)c1ccc(Cl)cc1-c1ccc([C@@H](C)N(CC2CC2)c2nc(C(=O)NS(=O)(=O)C3CC3)c(C3CC3)s2)cc1

IC50 [15]: 12 nM
EC50 [16]: 22 nM
Structure (SMILES): C[C@H](c1ccc(-c2cc(Cl)ccc2C(=O)NCCOCCOCCOCCOCCOCCOCCN=[N+]=[N-])cc1)N(CC1CC1)c1nc(C(=O)NS(=O)(=O)C2CC2)c(C2CC2)s1

concentration at 8 h [9]: 1010 ng/mL
Cmax [17]: 3480 ng/mL
AUC(0-inf) [18]: 24000 ng·h/mL
Tmax [19]: 3.3 h
half-life [20]: 2.9 h
MRT [21]: 5.9 h
IC80 [7]: 38 nM
Structure (SMILES): CONC(=O)c1ccc(C)cc1-c1ccc([C@@H](C)N(CC2CC2)c2nc(C(=O)NS(=O)(=O)C3CC3)c(C3CC3)s2)cc1

IC80 [7]: 12 nM
Structure (SMILES): Cc1ccc(-c2nc(=O)o[nH]2)c(-c2ccc([C@@H](C)N(CC3CC3)c3nc(C(=O)NS(=O)(=O)C4CC4)c(C4CCOC4)s3)cc2)c1 (stereo partly drawn)

IC80 [7]: 24 nM
Structure (SMILES): C[C@H](c1ccc(-c2cc(Cl)ccc2C(=O)O)cc1)N(CC1CC1)c1nc(C(=O)NS(=O)(=O)C2CC2)c(C2CC2)s1

Cmax [1]: 897 ng/mL
concentration at 8 h [2]: 453 ng/mL
Tmax [3]: 4 h
half-life [4]: 3.6 h
AUC(0-inf) [5]: 8720 ng·h/mL
MRT [6]: 6.4 h
IC80 [7]: 9 nM
Structure (SMILES): CNC(=O)c1ccc(Cl)cc1-c1ccc([C@@H](C)N(CC2CC2)c2nc(C(=O)NS(=O)(=O)C3CC3)c(C3CC3)s2)cc1
